From PubChem BioAssay (NCI)
Several values for one entry are separate records, joined by “and”; a condition that tells them apart may be missing. Equal values may be shown once.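 Step 1: Grow cells in 96-well plates. Step 2: Expose to compound for 48 hours at 5 concentrations. Step 3: Interpolate endpoints linearly; if unreached, use highest concentration. At the GI50, growth is halved. TGI: concentration producing complete growth inhibition.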

What was measured:
Test in all cases: NCI anticancer screen, dose series, 48 h
BT-549 breast = tested on: BT-549 breast
DU-145 prostate = tested on: DU-145 prostate
EKVX NSCLC = tested on: EKVX NSCLC
HCC-2998 colon = tested on: HCC-2998 colon
HL-60(TB) leukemia = tested on: HL-60(TB) leukemia
MDA-MB-435 = tested on: MDA-MB-435
NCI-H522 lung = tested on: NCI-H522 lung
SF-268 CNS = tested on: SF-268 CNS
SF-295 CNS = tested on: SF-295 CNS
A549 NSCLC = tested on: A549 NSCLC
OVCAR-8 ovarian = tested on: OVCAR-8 ovarian

## [N-]=[N+]=CC(=O)OCCCCl
BT-549 breast
  TGI: > 100 µM
DU-145 prostate
  TGI: > 100 µM
EKVX NSCLC
  TGI: > 100 µM
HCC-2998 colon
  TGI: > 100 µM
HL-60(TB) leukemia
  TGI: > 100 µM
MDA-MB-435
  TGI: > 100 µM
NCI-H522 lung
  TGI: > 100 µM
SF-268 CNS
  TGI: > 100 µM
SF-295 CNS
  TGI: > 100 µM

## C[C@H](CCC1SC1(C)C)C1CCC2(C)C3=C(CC[C@]12C)[C@@]1(C)CC[C@H](O)C(C)(C)C1CC3 (stereo not given in full)
A549 NSCLC
  TGI: > 100 µM
EKVX NSCLC
  TGI: > 100 µM
HCC-2998 colon
  TGI: > 100 µM
HL-60(TB) leukemia
  TGI: > 100 µM
NCI-H522 lung
  TGI: > 100 µM
OVCAR-8 ovarian
  TGI: > 100 µM
SF-268 CNS
  TGI: > 100 µM
SF-295 CNS
  TGI: > 100 µM

## COc1cc2c(cc1OC)C(=O)/C(=C/c1cc(C)cc(C)c1)C2
A549 NSCLC
  TGI: 18 µM
BT-549 breast
  TGI: 60.4 µM
DU-145 prostate
  TGI: 6.23 µM
EKVX NSCLC
  TGI: > 100 µM
HCC-2998 colon
  TGI: 2.14 µM
NCI-H522 lung
  TGI: > 46.8 µM
SF-268 CNS
  TGI: > 100 µM

## Cn1c(=O)c2c(nc3sc4ccccc4c(=O)n32)n(C)c1=O
BT-549 breast
  TGI: > 100 µM
DU-145 prostate
  TGI: > 100 µM
EKVX NSCLC
  TGI: > 100 µM
HCC-2998 colon
  TGI: > 100 µM
HL-60(TB) leukemia
  TGI: > 100 µM
MDA-MB-435
  TGI: > 100 µM
OVCAR-8 ovarian
  TGI: > 100 µM
SF-268 CNS
  TGI: > 100 µM
SF-295 CNS
  TGI: > 100 µM

## COc1ccc(C2C(=O)c3c(OC)cc(OC)cc3OC2c2cccnc2)cc1 (stereo not given)
A549 NSCLC
  TGI: > 100 µM
DU-145 prostate
  TGI: > 100 µM
EKVX NSCLC
  TGI: > 100 µM
HCC-2998 colon
  TGI: > 100 µM
MDA-MB-435
  TGI: > 100 µM
NCI-H522 lung
  TGI: > 100 µM
OVCAR-8 ovarian
  TGI: > 100 µM
SF-268 CNS
  TGI: > 100 µM
SF-295 CNS
  TGI: > 100 µM

## CC1=CP(=O)(c2c(C(C)C)cc(C(C)C)cc2C(C)C)CCC1Cl (stereo not given)
A549 NSCLC
  TGI: 32.7 µM
BT-549 breast
  TGI: 33.4 µM
DU-145 prostate
  TGI: 37.1 µM
EKVX NSCLC
  TGI: 32.6 µM
HL-60(TB) leukemia
  TGI: 42.8 µM
MDA-MB-435
  TGI: 37.6 µM
NCI-H522 lung
  TGI: 33.6 µM
OVCAR-8 ovarian
  TGI: 52.9 µM
SF-268 CNS
  TGI: 35.4 µM
SF-295 CNS
  TGI: 27.4 µM

## CCOC(=O)C1(C#N)CC1
A549 NSCLC
  TGI: > 100 µM
BT-549 breast
  TGI: > 100 µM
DU-145 prostate
  TGI: > 100 µM
EKVX NSCLC
  TGI: > 100 µM
HCC-2998 colon
  TGI: > 100 µM
HL-60(TB) leukemia
  TGI: > 100 µM
NCI-H522 lung
  TGI: > 100 µM
OVCAR-8 ovarian
  TGI: > 100 µM
SF-268 CNS
  TGI: > 100 µM
SF-295 CNS
  TGI: > 100 µM

## CN(C)c1ccc(/C=C/c2sc3ccccc3[n+]2C)cc1
A549 NSCLC
  TGI: 16.7 µM and 17.2 µM
DU-145 prostate
  GI50: 2.57 µM and 0.532 µM
  TGI: 13.2 µM and 11.2 µM
EKVX NSCLC
  GI50: 9.19 µM and 2.31 µM
  TGI: 31.9 µM and 19.8 µM
HCC-2998 colon
  GI50: 11.2 µM and 1.48 µM
  TGI: 25.7 µM and 17.3 µM
MDA-MB-435
  TGI: 5.64 µM and 3.94 µM
NCI-H522 lung
  TGI: 11.1 µM and 7.29 µM
OVCAR-8 ovarian
  GI50: 0.0955 µM and 0.387 µM
  TGI: 1.17 µM and 6.8 µM
SF-268 CNS
  TGI: 17.5 µM and 23 µM
SF-295 CNS
  TGI: 24.8 µM and 23.1 µM

## CC(=O)OC1[C@H](OC(C)=O)C2=C(C)[C@@H](OC(C)=O)C[C@@]2(C(C)(C)O)[C@@H](OC(C)=O)[C@H]2[C@@]1(C)[C@@H](OC(C)=O)CC(OC(C)=O)[C@]21CO1 (stereo not given in full)
A549 NSCLC
  TGI: > 100 µM
DU-145 prostate
  TGI: > 100 µM
EKVX NSCLC
  TGI: > 100 µM
HL-60(TB) leukemia
  TGI: > 100 µM
MDA-MB-435
  TGI: > 100 µM
NCI-H522 lung
  TGI: > 100 µM
OVCAR-8 ovarian
  TGI: > 100 µM
SF-268 CNS
  TGI: > 100 µM
SF-295 CNS
  TGI: > 100 µM

## O=C(Nc1ccc(S(=O)(=O)/N=c2\ncccn2C(=O)C(C(F)(F)F)C(F)(F)F)cc1)C(C(F)(F)F)C(F)(F)F
A549 NSCLC
  TGI: > 100 µM
DU-145 prostate
  TGI: > 100 µM
EKVX NSCLC
  TGI: > 100 µM
HCC-2998 colon
  TGI: > 100 µM
HL-60(TB) leukemia
  TGI: > 100 µM
MDA-MB-435
  TGI: > 100 µM
NCI-H522 lung
  TGI: > 100 µM
OVCAR-8 ovarian
  TGI: > 100 µM
SF-268 CNS
  TGI: > 100 µM
SF-295 CNS
  TGI: > 100 µM

## CC1OC2OC3C(OCC(O)C3O)OC(=O)[C@]34CCC(C)(C)CC3C3=CCC5[C@@]6(C)C[C@H](O)[C@H](OC7OC(CO)C(O)C(O)C7OC7OCC(OC(=O)CC(C)(O)CC(=O)OC1C(O)C2O)C(O)C7O)[C@@](C)(CO)C6CC[C@@]5(C)[C@]3(C)CC4 (stereo not given in full)
A549 NSCLC
  TGI: 10.7 µM
BT-549 breast
  TGI: 24.8 µM
DU-145 prostate
  TGI: 14.7 µM
HCC-2998 colon
  TGI: 5.12 µM
HL-60(TB) leukemia
  TGI: 4.11 µM
MDA-MB-435
  TGI: 19.1 µM
NCI-H522 lung
  TGI: 12 µM
OVCAR-8 ovarian
  TGI: 15.8 µM
SF-268 CNS
  TGI: 9.2 µM
SF-295 CNS
  TGI: 12.4 µM

## COc1cc(C(C)O)c[n+](CCC2CNc3ccccc32)c1 (stereo not given)
A549 NSCLC
  TGI: > 100 µM
EKVX NSCLC
  TGI: > 100 µM
HCC-2998 colon
  TGI: > 100 µM
HL-60(TB) leukemia
  TGI: > 100 µM
NCI-H522 lung
  TGI: > 100 µM
OVCAR-8 ovarian
  TGI: > 100 µM
SF-268 CNS
  TGI: 93 µM
SF-295 CNS
  TGI: > 100 µM

## Clc1ccc(C[P+](c2ccccc2)(c2ccccc2)c2ccccc2)cc1Cl
A549 NSCLC
  TGI: 19.9 µM
HCC-2998 colon
  TGI: 11.2 µM
HL-60(TB) leukemia
  TGI: 14.9 µM
NCI-H522 lung
  TGI: 10.3 µM
OVCAR-8 ovarian
  TGI: 12.4 µM
SF-268 CNS
  TGI: 11.3 µM
SF-295 CNS
  TGI: 22.2 µM

## CN(CCc1ccccn1)C(=S)N/N=C(\c1ccccc1)c1ccccn1
A549 NSCLC
  TGI: 8.42 µM
DU-145 prostate
  TGI: 5.66 µM
EKVX NSCLC
  TGI: 2 µM
HCC-2998 colon
  TGI: 5.39 µM
HL-60(TB) leukemia
  TGI: > 100 µM
MDA-MB-435
  TGI: 8.09 µM
NCI-H522 lung
  TGI: 5.22 µM
OVCAR-8 ovarian
  TGI: 1.56 µM
SF-295 CNS
  TGI: 2.7 µM

## C[C@@H]1CC(=O)C[C@@H]2CC[C@H]3[C@@H]4CC[C@H](OC(=O)c5cccc6cc7ccccc7nc56)[C@H]4CC[C@@H]3[C@H]21
A549 NSCLC
  TGI: 83.2 µM
BT-549 breast
  TGI: 59.1 µM
DU-145 prostate
  TGI: 28.7 µM
EKVX NSCLC
  TGI: 34.7 µM
MDA-MB-435
  TGI: 35.1 µM
NCI-H522 lung
  TGI: 20.1 µM
OVCAR-8 ovarian
  TGI: 38 µM
SF-268 CNS
  TGI: 20.9 µM
SF-295 CNS
  TGI: 77.6 µM

## O=C(O)/C=C/c1ccc2c(c1)CC1(Cc3ccccc3C1)C2
A549 NSCLC
  TGI: > 100 µM
EKVX NSCLC
  TGI: > 100 µM
HCC-2998 colon
  TGI: > 100 µM
HL-60(TB) leukemia
  TGI: 90.5 µM
MDA-MB-435
  TGI: > 100 µM
NCI-H522 lung
  TGI: > 100 µM
OVCAR-8 ovarian
  TGI: > 100 µM
SF-295 CNS
  TGI: > 100 µM

## CCOC(=O)c1c(SC(=O)c2ccc(OC)cc2)n(-c2ccccc2)c(=S)n(-c2ccccc2)c1=O
A549 NSCLC
  TGI: > 100 µM
DU-145 prostate
  TGI: > 100 µM
EKVX NSCLC
  TGI: > 100 µM
HCC-2998 colon
  TGI: > 100 µM
HL-60(TB) leukemia
  TGI: 70.2 µM
MDA-MB-435
  TGI: > 100 µM
NCI-H522 lung
  TGI: > 100 µM
OVCAR-8 ovarian
  TGI: 76.5 µM
SF-268 CNS
  TGI: 43.4 µM
SF-295 CNS
  TGI: > 100 µM

## Brc1cccc(C2ON=C(c3ccccc3)N2C23CC4CC(CC(C4)C2)C3)c1 (stereo not given)
A549 NSCLC
  TGI: > 10 µM
BT-549 breast
  TGI: > 10 µM
DU-145 prostate
  TGI: > 10 µM
EKVX NSCLC
  TGI: > 10 µM
HCC-2998 colon
  TGI: > 10 µM
MDA-MB-435
  TGI: > 10 µM
NCI-H522 lung
  TGI: > 10 µM
OVCAR-8 ovarian
  TGI: > 10 µM
SF-268 CNS
  TGI: > 10 µM
SF-295 CNS
  TGI: > 10 µM

## C/C(=N\Nc1nc2ccccc2s1)c1cc2ccccc2cn1
A549 NSCLC
  TGI: > 100 µM
BT-549 breast
  TGI: 45.8 µM
DU-145 prostate
  TGI: 12.6 µM
EKVX NSCLC
  TGI: 69.4 µM
HCC-2998 colon
  TGI: 27.2 µM
MDA-MB-435
  TGI: 72.8 µM
NCI-H522 lung
  TGI: 26 µM
OVCAR-8 ovarian
  TGI: 16.5 µM
SF-268 CNS
  TGI: > 100 µM
SF-295 CNS
  TGI: 19.3 µM

## CC1(C)OC2OC(C(COS(=O)(=O)C(F)(F)F)N=[N+]=[N-])C(OC(=O)c3ccccc3)C2O1 (stereo not given)
A549 NSCLC
  TGI: > 100 µM
BT-549 breast
  TGI: > 100 µM
DU-145 prostate
  TGI: > 100 µM
EKVX NSCLC
  TGI: > 100 µM
HCC-2998 colon
  TGI: > 100 µM
HL-60(TB) leukemia
  TGI: > 100 µM
MDA-MB-435
  TGI: > 100 µM
OVCAR-8 ovarian
  TGI: > 100 µM
SF-268 CNS
  TGI: > 100 µM
SF-295 CNS
  TGI: > 100 µM
